Patent publication US20110059043A1, “CHEMICAL COMPOUNDS” (priority 2009, published 2011)

Assays:
[1] = molecular target: T1, Recombinant HCV polymerase (BK strain) (Hepatitis C virus genotype 1b, UniProt P26663); experiment: HCV polymerase enzyme assay (radiometric [33P]-UTP incorporation); type: biochemical, HCV 1b
T1 construct: Recombinant HCV polymerase (BK strain) was expressed and purified from E. coli with a 21 amino acid C-terminal deletion; His6; made in house; host or cells: E. coli
Method in brief: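 His6-tagged BK-strain NS5B lacking 21 C-terminal residues, expressed in E. coli, at 100 nM in Tris pH 7.5 with 5 mM MgCl2 and 3% DMSO. Substrates: 125 nM biotin-U13:0.63 μg/ml PolyA, 200 nM UTP plus [33P]-UTP; 100 min at 25° C. Incorporation read by streptavidin capture; IC50 from 8-point curve.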

[2] = tested on: HCV replicon cells Huh 9B; experiment: HCV replicon assay (luciferase); type: cell-based; details: Hepatitis C virus, reduction of replicon level by 50% vs untreated cell control, 72 h
[3] = tested on: HCV replicon cells Huh 9B; type: cell-based; details: concentration reducing total cell area by 50% relative to DMSO controls; 72 h
Method in brief: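 Huh 9B replicon cells (luciferase-ubiquitin-neomycin fusion, EMCV-IRES-driven HCV polyprotein with adaptive mutations) were seeded from a 100,000 cells/ml suspension in G418-free medium, grown 24 h, then exposed to compound (dilutions at 1% DMSO) for 72 h at 37 °C. For toxicity, methylene blue staining was read at 620 nm and TD50 derived relative to DMSO controls.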

T1 sequence (P26663 2420-2989): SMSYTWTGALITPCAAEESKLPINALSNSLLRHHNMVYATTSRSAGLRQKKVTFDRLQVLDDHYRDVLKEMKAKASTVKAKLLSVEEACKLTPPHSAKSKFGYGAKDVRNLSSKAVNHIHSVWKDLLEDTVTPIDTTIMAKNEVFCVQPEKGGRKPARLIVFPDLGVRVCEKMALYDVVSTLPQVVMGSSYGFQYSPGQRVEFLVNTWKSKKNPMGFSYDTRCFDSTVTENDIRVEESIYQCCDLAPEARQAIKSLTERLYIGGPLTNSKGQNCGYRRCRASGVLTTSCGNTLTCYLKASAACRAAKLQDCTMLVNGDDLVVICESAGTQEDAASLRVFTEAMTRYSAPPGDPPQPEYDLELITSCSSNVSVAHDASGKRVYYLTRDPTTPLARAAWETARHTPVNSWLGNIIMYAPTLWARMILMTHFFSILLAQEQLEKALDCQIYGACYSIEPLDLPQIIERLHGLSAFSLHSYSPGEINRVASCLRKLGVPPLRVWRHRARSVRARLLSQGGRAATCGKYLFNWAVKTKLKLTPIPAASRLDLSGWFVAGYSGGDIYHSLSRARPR

| SMILES | IC50 [1] [nM] | IC50 [2] [nM] | Replicon Assay Value TD50 [3] [µM] |
| --- | --- | --- | --- |
| COCCOc1ccc(C)cc1C(=O)NC1N=C(c2c(Cl)cc(Cl)cc2Cl)c2ccccc2NC1=O (stereo not drawn) [Example 17, 2-(2-Methoxyethoxy)-5-methyl-N-(2-oxo-5-(2,4,6-trichlorophenyl)-2,3-dihydro-1H-benzo[e][1,4]diazepin-3-yl)benzamide] | 235 | 78.8 | >25 |
| CCOCCOc1ncc(F)cc1C(=O)NC1N=C(c2c(Cl)cc(Cl)cc2Cl)c2ccccc2NC1=O (stereo not drawn) [Example 34, 2-(2-Ethoxyethoxy)-5-fluoro-N-(2-oxo-5-(2,4,6-trichlorophenyl)-2,3-dihydro-1H-benzo[e][1,4]diazepin-3-yl)nicotinamide] | 91 | 14.1 | 11.884 |
| CCOCCOc1ncc(F)cc1C(=O)NC1N=C(c2c(Cl)cc(Cl)cc2OC)c2ccccc2NC1=O (stereo not drawn) [Example 55, N-(5-(2,4-Dichloro-6-methoxyphenyl)-2-oxo-2,3-dihydro-1H-benzo[e][1,4]diazepin-3-yl)-2-(2-ethoxyethoxy)-5-fluoronicotinamide] | 116 | 27 | 18.821 |
| COCCOc1ccc(F)cc1C(=O)NC1N=C(c2c(Cl)cc(Cl)cc2Cl)c2ccccc2NC1=O (stereo not drawn) [Example 16, 5-Fluoro-2-(2-methoxyethoxy)-N-(2-oxo-5-(2,4,6-trichlorophenyl)-2,3-dihydro-1H-benzo[e][1,4]diazepin-3-yl)benzamide] | 119 | 38.7 | 22.094 |
| CCOCCOCCOc1ccc(Cl)cc1C(=O)NC1N=C(c2c(Cl)cc(Cl)cc2Cl)c2ccccc2NC1=O (stereo not drawn) [Example 8, 5-Chloro-2-(2-(2-ethoxyethoxy)ethoxy)-N-(2-oxo-5-(2,4,6-trichlorophenyl)-2,3-dihydro-1H-benzo[e][1,4]diazepin-3-yl)benzamide] | 1070 | 1340 | 11.724 |
| CS(=O)(=O)NCCOc1ccc(Cl)cc1C(=O)NC1N=C(c2c(Cl)cc(Cl)cc2Cl)c2ccccc2NC1=O (stereo not drawn) [Example 23, 5-Chloro-2-(2-(methylsulfonamido)ethoxy)-N-(2-oxo-5-(2,4,6-trichlorophenyl)-2,3-dihydro-1H-benzo[e][1,4]diazepin-3-yl)benzamide] | 952 | 2910 | 12.744 |
| COCCOc1ccc(OC(F)(F)F)cc1C(=O)NC1N=C(c2c(Cl)cc(Cl)cc2Cl)c2ccccc2NC1=O (stereo not drawn) [Example 19, 2-(2-Methoxyethoxy)-N-(2-oxo-5-(2,4,6-trichlorophenyl)-2,3-dihydro-1H-benzo[e][1,4]diazepin-3-yl)-5-(trifluoromethoxy)benzamide] | 2150 | 645 | >25 |
| CCS(=O)(=O)NCCCOc1ccc(Cl)cc1C(=O)NC1N=C(c2c(Cl)cc(Cl)cc2Cl)c2ccccc2NC1=O (stereo not drawn) [Example 28, 5-chloro-2-(3-(ethylsulfonamido)propoxy)-N-(2-oxo-5-(2,4,6-trichlorophenyl)-2,3-dihydro-1H-benzo[e][1,4]diazepin-3-yl)benzamide] | 850 | 2130 | 8.004 |
